Key:
MLLr cell lines = assay: Cell growth (cell counting after trypan blue exclusion) of MLLr cell lines; format: cell-based, human; conditions: 50 nM or 100 nM PR-957, 96 hours, vs DMSO; FIG. 1G left
Protocol: MOLM-13, MONO-MAC-6, THP-1, KOPN-8, ML-2, MV-4;11, OCI-AML3, U-937, KASUMI-1, K-562, HL-60 and LAMA-84 cells were purchased from DSMZ (Braunschweig, Germany). Cas9-Blast cell lines are subclones of the respective cell lines and stably transduced with lentiCas9-Blast (Addgene plasmid #52962). Cells were cultured in RPMI 1640 medium (Thermo Fisher Scientific, Waltham, MA, USA) supplemented with 10-20% FBS (Thermo Fisher Scientific) in a humid atmosphere of 5% CO2 at 37° C. MV4;11 cells harboring Menin-inhibitor resistance mediating mutations of Menin were generated by CRISPR-Cas9 technology.
Cellular proliferation was assessed by cell counting after trypan blue exclusion. Apoptosis of cells was measured by flow cytometry using Annexin V/SYTOX® Blue staining following the manufacturer's instruction.

AML1-ETO = assay: Methylcellulose colony-forming assay, AML1-ETO transduced murine cells; format: cell-based, mouse; conditions: 100 nM or 200 nM; FIG. 2A right panel
Protocol: Primary mouse bone marrow (BM) cells (transduced with MLL-AF9/KRAS, MLL-AF6, or AML1-ETO/KRAS) were seeded in MethoCult GF M3434 (StemCell Technologies) at a concentration of 1×10^3 cells/replicate. Colonies propagated in culture were scored at day 8. For re-plating of primary mouse BM cells, colonies were harvested from the methylcellulose medium, washed with PBS/1% FBS and seeded again at a concentration of 1×10^3 cells/replicate. MOLM-13 or ML-2 cells infected with either control or PSMB8/LMP7-specific shRNAs were plated at a concentration of 1×10^3 cells in MethoCult H4230 (StemCell Technologies) supplemented with 20% FBS and colony numbers were counted on day 10-14.

MLL-AF9 driven leukemia = assay: Secondary transplantation of bone marrow from in vivo treated MLL-AF9 mice; design: species or system mouse; conditions: p<0.0001
Protocol: For induction of MLL-AF9 (MA9) driven leukemia we used established retroviral MSCV-GFP-based vectors to express MA9 in hematopoietic stem- and progenitor cells (Lineage-negative, Sca1-positive, Kit-positive [LSK] cells). In detail, bone marrow (BM) of LMP7+/+ or LMP7−/− littermates was isolated following standard procedures from 6-12-weeks-old mice. Lineage-depletion was performed using Streptavidin Particles Plus-DM (BD Biosciences, Heidelberg, Germany) and a DynaMag magnet (Thermo Fisher Scientific). Lineage-depleted cells were stained with streptavidin BV421, KIT AF647 and Sca-1 FITC or PE antibodies (all antibodies were received from Biolegend, San Diego, CA, USA) and then used for cell sorting. […] Cells were analyzed 48 hours after first infection for GFP-expression using flow cytometry and 7.5×10^4 GFP+ cells were injected into sublethally irradiated (7 Gy, single dose) primary recipient mice (C57BL/6J; females). […]
To characterize the effects of LMP7/PSMB8 inhibition in more detail, differentiation following PR-957 treatment was assessed. […] Next, the frequency of L-GMP (Lin− c-kit+ Sca1− CD34+ FcgR+) was assessed by flow cytometry, which have been described as the functionally relevant LSC population in MLL-AF9 driven leukemia. […]

[1] = test system: leukemic stem cell (LSC), MLL-AF9; assay: Limiting dilution assay of MLL-AF9 leukemic bone marrow cells treated ex vivo (ELDA); format: in vivo, mouse; conditions: 200 nM PR-957 ex vivo 48 hours

COc1ccc(C[C@H](NC(=O)[C@H](C)NC(=O)CN2CCOCC2)C(=O)N[C@@H](Cc2ccccc2)C(=O)[C@]2(C)CO2)cc1 [PR-957, (2S)-3-(4-methoxyphenyl)-N-[(2S)-1-[(2S)-2-methyloxiran-2-yl]-1-oxo-3-phenylpropan-2-yl]-2-[[(2S)-2-[(2-morpholin-4-ylacetyl)amino]propanoyl]amino]propanamide]
cell growth in MLLr cell lines (MLLr cell lines): dose-dependent and specific reduction of cell growth | reduction of clonogenic potential, non-MLL fusion oncogene AML1-ETO (AML1-ETO): not detectable | median survival of secondary recipients (MLL-AF9 driven leukemia; recipients of PR-957 treated cells, control 21 days, FIG. 2G): 39.5 days | leukemic cells in the peripheral blood (GFP+ WBC) of secondary recipients (MLL-AF9 driven leukemia; two weeks after transplantation of bone marrow of treated mice, FIG. 2F): 1.6 Gpt/L | reduction in LSC frequency compared to diluent treated controls [1]: more than log-fold reduction | LSC frequency ([1]; ELDA, DMSO 1/4550, FIG. 2H,I): 1/57610
